In patent publication US20150044702A1, “MEANS AND METHODS FOR ASSESSING DISORDERS RELATED TO IMPAIRED IRON […] ENERGY METABOLISM” (BASF SE, priority 2012, published 2015):
Marks after values point to notes of the source that are not given here.

Assay: 28-day rat study, plasma metabolite profiling: markers for Duodenum iron deficiency;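 further: rats given the compounds once a day across 28 days, plasma from fasted animals profiled by GC-MS and LC-MS, separate control groups of five rats per sex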
Details: for Cholic acid, treatment ratio versus control / Choline plasmalogen (C18,C20:4), treatment ratio versus control / Citrate, treatment ratio versus control / Creatinine, treatment ratio versus control / DAG (C18:1,C18:2), treatment ratio versus control / Hippuric acid, treatment ratio versus control / Indole-3-propionic acid, treatment ratio versus control / Methionine, treatment ratio versus control / Proline, treatment ratio versus control / Serine, treatment ratio versus control / TAG (C16:0,C18:1,C18:3), treatment ratio versus control / TAG (C18:1,C18:2), treatment ratio versus control / TAG (C18:2,C18:2), treatment ratio versus control / TAG (C18:2,C18:3), treatment ratio versus control / TAG (DAG-Fragment), treatment ratio versus control / TAG No 02, treatment ratio versus control / TAG No 07, treatment ratio versus control / Threonine, treatment ratio versus control / alpha-Tocopherol, treatment ratio versus control / Alanine, treatment ratio versus control / Campesterol, treatment ratio versus control / Glutamate, treatment ratio versus control / Glutamine, treatment ratio versus control / Lysophosphatidylcholine (C20:4), treatment ratio versus control / Malate, treatment ratio versus control / Ornithine, treatment ratio versus control / Phosphatidylcholine (C18:0, C22:6), treatment ratio versus control / Threonic acid, treatment ratio versus control: plasma
Procedure: A group of each 5 male and female rats was dosed once daily with the indicated compounds (see Table 4, below for compounds, applied doses and administration details) over 28 days.
Each dose group in the studies consisted of five rats per sex. Additional groups of each 5 male and female animals served as controls. Before starting the treatment period, animals, which were 62-64 days old when supplied, were acclimatized to the housing and environmental conditions for 7 days. All animals of the animal population were kept under the same constant temperature (20-24±3° C.) and the same constant humidity (30-70%). The animals of the animal population were fed ad libitum. The food to be used was essentially free of chemical or microbial contaminants. Drinking water was also offered ad libitum. Accordingly, the water was free of chemical and microbial contaminants as laid down in the European Drinking Water Directive 98/83/EG. The illumination period was 12 hours light followed by 12 hours darkness (12 hours light, from 6:00 to 18:00, and 12 hours darkness, from 18:00 to 6:00). The studies were performed in an AAALAC-approved laboratory in accordance with the German Animal Welfare Act and the European Council Directive 86/609/EE. The test system was arranged according to the OECD 407 guideline for the testing of chemicals for repeated dose 28-day oral toxicity study in rodents.
In the morning of day 7, 14, and 28, blood was taken from the retroorbital venous plexus from fasted anaesthetized animals. From each animal, 1 ml of blood was collected with EDTA as anticoagulant. The samples were centrifuged for generation of plasma. All plasma samples were covered with a N2 atmosphere and then stored at −80° C. until analysis.
For mass spectrometry-based metabolite profiling analyses plasma samples were extracted and a polar and a non-polar (lipid) fraction was obtained. For GC-MS analysis, the non-polar fraction was treated with methanol under acidic conditions to yield the fatty acid methyl esters. Both fractions were further derivatised with O-methyl-hydroxyamine hydrochloride and pyridine to convert Oxo-groups to O-methyloximes and subsequently with a silylating agent before analysis. In LC-MS analysis, both fractions were reconstituted in appropriate solvent mixtures. HPLC was performed by gradient elution on reversed phase separation columns.
Steroids and their metabolites were measured by online SPE-LC-MS (Solid phase extraction-LC-MS).
Following comprehensive analytical validation steps, the data for each analyte were normalized against data from pool samples. These samples were run in parallel through the whole process to account for process variability. The significance of treatment group values specific for sex, treatment duration and metabolite was determined by comparing means of the treated groups to the means of the respective untreated control groups using WELCH-test and quantified with treatment ratios versus control and p-values.

SMILES: CNC(=O)/C(=N/OC)c1ccccc1COc1cc(C)ccc1C [Dimoxystrobin, (E)-2-(methoxyimino)-N-methyl-2-[alpha-(2,5-xylyloxy)-o-tolyl]acetamide]
- Cholic acid, treatment ratio versus control (female rats, day 7): 70.58*
- Choline plasmalogen (C18,C20:4), treatment ratio versus control (female rats, day 7): 1.11
- Citrate, treatment ratio versus control (female rats, day 7): 1.22*
- Creatinine, treatment ratio versus control (female rats, day 7): 0.71
- DAG (C18:1,C18:2), treatment ratio versus control (female rats, day 7): 1.9*
- Hippuric acid, treatment ratio versus control (female rats, day 7): 0.85
- Indole-3-propionic acid, treatment ratio versus control (female rats, day 7): 1.53
- Methionine, treatment ratio versus control (female rats, day 7): 1.05
- Proline, treatment ratio versus control (female rats, day 7): 1.28*
- Serine, treatment ratio versus control (female rats, day 7): 1.5*
- TAG (C16:0,C18:1,C18:3), treatment ratio versus control (female rats, day 7): 4.14*
- TAG (C18:1,C18:2), treatment ratio versus control (female rats, day 7): 4.42*
- TAG (C18:2,C18:2), treatment ratio versus control (female rats, day 7): 5.1*
- TAG (C18:2,C18:3), treatment ratio versus control (female rats, day 7): 4.2*
- TAG (DAG-Fragment), treatment ratio versus control (female rats, day 7): 4.39*
- TAG No 02, treatment ratio versus control (female rats, day 7): 0.75*
- TAG No 07, treatment ratio versus control (female rats, day 7): 2.96*
- Threonine, treatment ratio versus control (female rats, day 7): 1.62*
- alpha-Tocopherol, treatment ratio versus control (female rats, day 7): 1.74*
- Cholic acid, treatment ratio versus control (female rats, day 14): 39.73*
- Choline plasmalogen (C18,C20:4), treatment ratio versus control (female rats, day 14): 1.13*
- Citrate, treatment ratio versus control (female rats, day 14): 1.17*
- Creatinine, treatment ratio versus control (female rats, day 14): 1.07
- DAG (C18:1,C18:2), treatment ratio versus control (female rats, day 14): 1.96*
- Hippuric acid, treatment ratio versus control (female rats, day 14): 0.51*
- Indole-3-propionic acid, treatment ratio versus control (female rats, day 14): 0.87
- Methionine, treatment ratio versus control (female rats, day 14): 1.18*
- Proline, treatment ratio versus control (female rats, day 14): 1.35*
- Serine, treatment ratio versus control (female rats, day 14): 1.66*
- TAG (C16:0,C18:1,C18:3), treatment ratio versus control (female rats, day 14): 3.15
- TAG (C18:1,C18:2), treatment ratio versus control (female rats, day 14): 3.71*
- TAG (C18:2,C18:2), treatment ratio versus control (female rats, day 14): 3.83*
- TAG (C18:2,C18:3), treatment ratio versus control (female rats, day 14): 2.76*
- TAG (DAG-Fragment), treatment ratio versus control (female rats, day 14): 4.43*
- TAG No 02, treatment ratio versus control (female rats, day 14): 0.73*
- TAG No 07, treatment ratio versus control (female rats, day 14): 1.7
- Threonine, treatment ratio versus control (female rats, day 14): 1.34*
- alpha-Tocopherol, treatment ratio versus control (female rats, day 14): 1.43*
- Cholic acid, treatment ratio versus control (female rats, day 28): 6.46*
- Choline plasmalogen (C18,C20:4), treatment ratio versus control (female rats, day 28): 1.11*
- Citrate, treatment ratio versus control (female rats, day 28): 1.21*
- Creatinine, treatment ratio versus control (female rats, day 28): 0.74
- DAG (C18:1,C18:2), treatment ratio versus control (female rats, day 28): 1.58*
- Hippuric acid, treatment ratio versus control (female rats, day 28): 0.29*
- Indole-3-propionic acid, treatment ratio versus control (female rats, day 28): 0.58*
- Methionine, treatment ratio versus control (female rats, day 28): 1.15*
- Proline, treatment ratio versus control (female rats, day 28): 1.25*
- Serine, treatment ratio versus control (female rats, day 28): 1.41*
- TAG (C16:0,C18:1,C18:3), treatment ratio versus control (female rats, day 28): 2
- TAG (C18:1,C18:2), treatment ratio versus control (female rats, day 28): 1.95
- TAG (C18:2,C18:2), treatment ratio versus control (female rats, day 28): 2.48*
- TAG (C18:2,C18:3), treatment ratio versus control (female rats, day 28): 2.26
- TAG (DAG-Fragment), treatment ratio versus control (female rats, day 28): 2.23*
- TAG No 02, treatment ratio versus control (female rats, day 28): 0.77*
- TAG No 07, treatment ratio versus control (female rats, day 28): 1.45
- Threonine, treatment ratio versus control (female rats, day 28): 1.23*
- alpha-Tocopherol, treatment ratio versus control (female rats, day 28): 1.32
- Alanine, treatment ratio versus control (male rats, day 7): 1.41*
- Campesterol, treatment ratio versus control (male rats, day 7): 1.13
- Citrate, treatment ratio versus control (male rats, day 7): 1.19*
- Creatinine, treatment ratio versus control (male rats, day 7): 0.95
- Glutamate, treatment ratio versus control (male rats, day 7): 0.93
- Glutamine, treatment ratio versus control (male rats, day 7): 0.79*
- Hippuric acid, treatment ratio versus control (male rats, day 7): 0.91
- Lysophosphatidylcholine (C20:4), treatment ratio versus control (male rats, day 7): 0.96
- Malate, treatment ratio versus control (male rats, day 7): 1.25*
- Methionine, treatment ratio versus control (male rats, day 7): 1.08*
- Ornithine, treatment ratio versus control (male rats, day 7): 1.19*
- Phosphatidylcholine (C18:0, C22:6), treatment ratio versus control (male rats, day 7): 1.12*
- Serine, treatment ratio versus control (male rats, day 7): 1.28*
- Threonic acid, treatment ratio versus control (male rats, day 7): 1.33*
- Threonine, treatment ratio versus control (male rats, day 7): 1.14
- Alanine, treatment ratio versus control (male rats, day 14): 1.59*
- Campesterol, treatment ratio versus control (male rats, day 14): 1.16
- Citrate, treatment ratio versus control (male rats, day 14): 1.32*
- Creatinine, treatment ratio versus control (male rats, day 14): 0.63*
- Glutamate, treatment ratio versus control (male rats, day 14): 0.74*
- Glutamine, treatment ratio versus control (male rats, day 14): 0.77*
- Hippuric acid, treatment ratio versus control (male rats, day 14): 0.48*
- Lysophosphatidylcholine (C20:4), treatment ratio versus control (male rats, day 14): 0.93*
- Malate, treatment ratio versus control (male rats, day 14): 1.16
- Methionine, treatment ratio versus control (male rats, day 14): 1.16*
- Ornithine, treatment ratio versus control (male rats, day 14): 1.52*
- Phosphatidylcholine (C18:0, C22:6), treatment ratio versus control (male rats, day 14): 1.47*
- Serine, treatment ratio versus control (male rats, day 14): 1.32*
- Threonic acid, treatment ratio versus control (male rats, day 14): 1.29*
- Threonine, treatment ratio versus control (male rats, day 14): 1.29*
- Alanine, treatment ratio versus control (male rats, day 28): 1.28*
- Campesterol, treatment ratio versus control (male rats, day 28): 0.59*
- Citrate, treatment ratio versus control (male rats, day 28): 1.57*
- Creatinine, treatment ratio versus control (male rats, day 28): 0.26*
- Glutamate, treatment ratio versus control (male rats, day 28): 0.78*
- Glutamine, treatment ratio versus control (male rats, day 28): 0.83*
- Hippuric acid, treatment ratio versus control (male rats, day 28): 1.43
- Lysophosphatidylcholine (C20:4), treatment ratio versus control (male rats, day 28): 1.03
- Malate, treatment ratio versus control (male rats, day 28): 0.86
- Methionine, treatment ratio versus control (male rats, day 28): 1.01
- Ornithine, treatment ratio versus control (male rats, day 28): 1.47*
- Phosphatidylcholine (C18:0, C22:6), treatment ratio versus control (male rats, day 28): 1.35*
- Serine, treatment ratio versus control (male rats, day 28): 1.29*
- Threonic acid, treatment ratio versus control (male rats, day 28): 1.46*
- Threonine, treatment ratio versus control (male rats, day 28): 1.21*
- capability of inducing an iron adsorption disorder (statement in words): capable of inducing an iron adsorption disorder
